The record followed here is patent US9303019B2, “Amino-pyrroline derivatives, and use thereof in the prevention and/or treatment of metabolic syndrome” (UNIVERSITE DE STRASBOURG, priority 2012, dated 2016).

The target of assay [1] is I1 receptor (Rattus norvegicus, UniProt Q4G017). Kind of assay: Competitive binding to [125I]-PIC in membranes of PC12 cells. Particulars: PC12 cell membranes. On the procedure:
The PC-12 cells were cultured in 75-cm^2 dishes in DMEM medium (1000 mg/l glucose) supplemented with 10% FBS inactivated by treatment at 56° C., 100 U/ml penicillin and 100 μg/ml streptomycin. When the cells reached confluence (3 to 4 days after the start of culture) they were harvested and passaged via the action of 0.25% trypsin for 2 minutes at 37° C. For the specific binding assays, the medium was removed and the cells stored by freezing to −20° C. until use with the membrane preparation.
The frozen PC12 cells were recovered by scraping in ice-cold Tris-HEPES buffer (5 mM Tris-HEPES, pH 7.7, 0.5 mM EDTA, 0.5 mM EGTA and 0.5 mM MgCl2) and Potter homogenized. After centrifuging at 75,000 g for 20 min, the residue was washed in ice-cold Tris-HEPES buffer then again centrifuged. This last operation was performed twice. […]
The reaction was halted by rapid vacuum filtration through GF/B fibre glass filters treated with 0.3% PEI using filtering equipment of Brandel® type, followed by three rapid washings of the filters using 3 ml of ice-cold 50 mM Tris-HCl buffer, pH 7.4. The radioactivity retained on the dried filters was determined using a Minaxi gamma counter (Packard, Meriden, CT, USA). Non-specific binding was determined by [^125I]PIC binding in the presence of 10 μM PIC and represented about 43% of total radioactivity.

In assay [2] the target is I1 receptor (Homo sapiens, UniProt Q9Y2I1). In words: Specific binding assay of the I1 receptor on human platelets with [125I]LNP 911. As for the experimental part: Binding assays were performed at 37° C. using [^125I]LNP 911 as radioligand following the general procedure described but adapted to washed whole platelets (Greney, H.; Urosevic, D.; Schann, S.; Dupuy, L.; Bruban, V.; Ehrhardt, J,-D.; Bousquet, P.; Dontenwill, M. [^125I]2-(2-Chloro-4-iodo-phenylamino)-5-methyl-pyrroline (LNP911), a High-Affinity Radioligand Selective for I1 Imidazoline Receptors. Mol. Pharmacol. 2002, 62, 181-191).
Incubation was initiated through the addition of 900 to 950 μl of platelet suspension at a concentration of 500000/μl in a final volume of 1 ml Tyrode albumin and was performed at 37° C. for 5 min (equilibrium conditions). The competitive assays were conducted using a single concentration of radioligand ([…], 200 000 cpm), in the presence of increasing concentrations of suitable non-labelled ligand. Non-specific binding was determined by the binding of [^125I]LNP 911 in the presence of 100 nM of non-labelled LNP 911 and represented about 10% of total radioactivity when […] of [^125I]LNP 911 were used.
The reaction was halted by rapid vacuum filtration through GF/C fibre glass filters followed by five rapid washings of the filters with 3 ml of ice-cold Tyrode ([…], pH 7.35). Radioactivity was measured using a gamma counter (Wallac 1410).
(§1) The competitive assays were analyzed by non-linear regression using the GraphPad programme.
(§2) Ki values were determined using the method described by Cheng and Prussof (Cheng, Y. C.; Prusoff, W. H. Relationship between the Inhibition Constant (Ki) and the Concentration of Inhibitor which causes 50 percent Inhibition (I50) of an Enzymatic Reaction. Biochem. Pharmacol. 1973, 22, 3099-3108).

The subject of a further assay is α2-adrenergic receptors. Kind of assay: Binding assay of the α2-adrenergic receptors on CHO cell membranes with [3H]RX821002. The arrangement: species or system human. As for the experimental part: These membranes (30 μg proteins/ml for CHO-hα2A and CHO-hα2B, 100 μg protein/ml for CHO-hα2C) were incubated for 60 min at ambient temperature in binding buffer (33 mM Tris-HCl, 1 mM EDTA, pH 7.5) in a final volume of 500 μL containing 0.8 or 1 or 2 nM [^3H]RX821002 respectively for the adrenergic receptors hα2A, hα2B and hα2C.
Incubation was halted by rapid vacuum filtration through GF/C glass fibre filters followed by three successive washings in ice-cold binding buffer.
Non-specific binding was determined using 10 μM phentolamine.
as §1, §2

The subject of the next assay is Sprague-Dawley rats. Kind of assay: Acute i.v. treatment: renal sympathetic nerve activity and hemodynamic parameters in anesthetized rats. It is filed as in vivo, rat. Particulars: 10 mg/kg i.v. As for the experimental part:
Male Sprague-Dawley rats (10 weeks; Laboratoires Charles River, L'Arbresle, France) were anesthetized with urethane (1.5 g/kg i.p., supplemented with 0.1 g/kg i.v. if necessary) and placed on a hot blanket to maintain rectal temperature at 37° C.
The left renal nerve was carefully isolated and a major branch of the nerve was placed on a bipolar platinum-iridium electrode insulated with silicone gel (604A and B; Wacker Chemie, Munich, Germany). Throughout the experiment the rat was ventilated by means of a tracheal cannula (7-8 ml/kg×72 cycles/min) with a mixture of oxygen and air (˜8%-20%).
Arterial pressure was measured by connecting the arterial catheter to a pressure transducer (TNF-R; Ohmeda, Bilthoven, Holland) coupled to an amplifier (model 13-4615-52; Gould, Cleveland, Ohio).
Renal sympathetic nerve activity (RSNA) was amplified (×50,000), the pass-band filtered (300-3000 Hz; Model P-511J; Grass, Quincy, Mass.) and rectified with a home-built analogue rectifier including a low frequency filter with a cut-off frequency of 150 Hz.
The 2 parameters were continuously recorded using a computer equipped with an analogue-digital converter (model AT-MIO-16; National Instruments, Austin, Tex.) and LabVIEW 5.1 software (National Instruments).
Arterial pressure and RSNA were recorded before (baseline) and after administering compound 1 (10 mg/kg, i.v.). At the end of the recording session, chlorisondamine, a ganglionic blocker, was administered (2.5 mg/kg, i.v.) to evaluate the level of background noise which was then subtracted from all RSNA data for subsequent analyses. At the end of the experiment, the rats were euthanized with an intravenous overdose of sodium pentobarbital.

pKi: −log10 of the molar value. Some results are limits rather than exact numbers.

Chain of I1 receptor (Rattus norvegicus, UniProt Q4G017) (Q4G017 whole entry, looked up): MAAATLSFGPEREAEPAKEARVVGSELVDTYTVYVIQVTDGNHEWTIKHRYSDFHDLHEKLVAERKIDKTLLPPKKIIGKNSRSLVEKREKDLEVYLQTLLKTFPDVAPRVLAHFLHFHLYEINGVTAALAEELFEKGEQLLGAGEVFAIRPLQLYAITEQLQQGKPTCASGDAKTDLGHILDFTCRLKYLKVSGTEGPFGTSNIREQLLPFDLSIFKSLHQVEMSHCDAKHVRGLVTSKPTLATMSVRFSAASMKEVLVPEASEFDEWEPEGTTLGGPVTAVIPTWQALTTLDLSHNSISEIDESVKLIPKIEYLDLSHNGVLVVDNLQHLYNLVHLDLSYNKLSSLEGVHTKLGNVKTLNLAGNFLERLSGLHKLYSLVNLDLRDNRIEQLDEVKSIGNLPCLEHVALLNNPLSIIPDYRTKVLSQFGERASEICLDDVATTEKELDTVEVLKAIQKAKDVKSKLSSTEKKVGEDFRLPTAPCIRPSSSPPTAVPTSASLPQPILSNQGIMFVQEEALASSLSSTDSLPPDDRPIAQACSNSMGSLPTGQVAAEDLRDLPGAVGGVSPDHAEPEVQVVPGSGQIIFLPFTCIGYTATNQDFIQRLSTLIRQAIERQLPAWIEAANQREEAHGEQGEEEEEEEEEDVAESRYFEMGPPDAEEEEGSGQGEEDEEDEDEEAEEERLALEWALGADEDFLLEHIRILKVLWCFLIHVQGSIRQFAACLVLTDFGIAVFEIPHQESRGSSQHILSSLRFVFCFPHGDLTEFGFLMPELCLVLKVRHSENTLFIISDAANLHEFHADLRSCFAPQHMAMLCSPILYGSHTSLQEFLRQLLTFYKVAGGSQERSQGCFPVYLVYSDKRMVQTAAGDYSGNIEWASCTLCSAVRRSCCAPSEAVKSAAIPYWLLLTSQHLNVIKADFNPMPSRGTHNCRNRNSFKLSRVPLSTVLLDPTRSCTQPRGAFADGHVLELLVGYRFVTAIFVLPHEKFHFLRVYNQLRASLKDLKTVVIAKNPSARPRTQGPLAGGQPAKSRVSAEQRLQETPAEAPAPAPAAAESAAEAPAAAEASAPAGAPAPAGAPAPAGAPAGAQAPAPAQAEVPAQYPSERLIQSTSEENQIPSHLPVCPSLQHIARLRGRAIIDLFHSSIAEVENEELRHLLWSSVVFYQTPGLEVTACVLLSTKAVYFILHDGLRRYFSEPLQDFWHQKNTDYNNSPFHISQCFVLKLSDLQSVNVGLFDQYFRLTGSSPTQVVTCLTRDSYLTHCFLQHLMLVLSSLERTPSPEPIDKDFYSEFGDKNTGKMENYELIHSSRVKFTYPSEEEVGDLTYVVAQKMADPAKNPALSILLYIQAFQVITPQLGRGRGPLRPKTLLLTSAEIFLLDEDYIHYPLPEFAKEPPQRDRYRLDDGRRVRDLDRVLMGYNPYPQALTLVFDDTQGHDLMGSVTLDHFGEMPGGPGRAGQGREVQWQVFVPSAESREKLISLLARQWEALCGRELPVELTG
Chain of I1 receptor (Homo sapiens, UniProt Q9Y2I1) (Q9Y2I1 2-1504 limits assumed): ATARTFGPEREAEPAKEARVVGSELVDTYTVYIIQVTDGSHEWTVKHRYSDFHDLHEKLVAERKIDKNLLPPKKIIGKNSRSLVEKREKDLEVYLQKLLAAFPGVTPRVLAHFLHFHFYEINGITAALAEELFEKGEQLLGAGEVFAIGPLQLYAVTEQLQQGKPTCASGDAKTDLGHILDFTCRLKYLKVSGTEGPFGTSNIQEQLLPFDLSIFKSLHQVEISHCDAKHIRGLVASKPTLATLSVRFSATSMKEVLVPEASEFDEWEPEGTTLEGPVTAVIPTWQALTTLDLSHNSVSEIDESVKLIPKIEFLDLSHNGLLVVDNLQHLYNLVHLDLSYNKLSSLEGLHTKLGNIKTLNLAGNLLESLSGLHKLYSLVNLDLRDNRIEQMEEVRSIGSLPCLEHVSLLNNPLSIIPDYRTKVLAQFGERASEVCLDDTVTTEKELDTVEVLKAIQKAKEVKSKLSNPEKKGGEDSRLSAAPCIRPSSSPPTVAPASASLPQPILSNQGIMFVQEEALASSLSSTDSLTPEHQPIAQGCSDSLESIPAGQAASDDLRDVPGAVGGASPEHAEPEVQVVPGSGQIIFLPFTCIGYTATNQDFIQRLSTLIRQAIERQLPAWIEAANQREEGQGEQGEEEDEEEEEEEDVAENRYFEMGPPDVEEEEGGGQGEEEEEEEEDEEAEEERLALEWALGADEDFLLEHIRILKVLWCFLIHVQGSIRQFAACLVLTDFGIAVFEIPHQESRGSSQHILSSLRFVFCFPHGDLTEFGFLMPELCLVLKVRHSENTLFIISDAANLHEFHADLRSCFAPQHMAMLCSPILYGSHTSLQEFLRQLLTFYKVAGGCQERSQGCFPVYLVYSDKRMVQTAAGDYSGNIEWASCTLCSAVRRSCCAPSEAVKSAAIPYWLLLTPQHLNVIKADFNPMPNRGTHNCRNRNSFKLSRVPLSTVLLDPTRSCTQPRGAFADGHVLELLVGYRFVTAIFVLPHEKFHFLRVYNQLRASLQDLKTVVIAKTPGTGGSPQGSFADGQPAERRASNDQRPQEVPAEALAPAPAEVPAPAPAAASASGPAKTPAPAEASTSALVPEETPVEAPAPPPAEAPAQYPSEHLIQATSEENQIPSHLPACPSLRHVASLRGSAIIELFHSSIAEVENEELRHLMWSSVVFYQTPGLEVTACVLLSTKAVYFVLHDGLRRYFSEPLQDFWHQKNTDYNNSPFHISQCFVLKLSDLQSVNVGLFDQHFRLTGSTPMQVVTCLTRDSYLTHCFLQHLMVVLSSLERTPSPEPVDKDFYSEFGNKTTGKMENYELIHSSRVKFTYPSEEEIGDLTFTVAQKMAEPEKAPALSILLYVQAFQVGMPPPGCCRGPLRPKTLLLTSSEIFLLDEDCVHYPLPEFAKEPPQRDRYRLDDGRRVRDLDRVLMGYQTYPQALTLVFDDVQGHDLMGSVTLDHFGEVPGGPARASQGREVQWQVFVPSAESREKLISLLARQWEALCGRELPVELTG

Turning to `Cc1c(Cl)cccc1NC1=NCC(C)C1.Cl` (stereo not shown) [Compound 1, (3-Chloro-2-methyl-phenyl)-(4-methyl-4,5-dihydro-3H-pyrrol-2-yl)-amine hydrochloride], at I1 receptor [1], the “share of sites with high affinity” value came out at 55%. In addition, the pKi was 8.09 at I1 receptor [2] and under 5.00 in the assay with α2-adrenergic receptors (CHO cells). Besides, the “displacement at the α2-adrenergic receptor” value in the assay on α2-adrenergic receptors (concentration of 10^−5 M) is recorded as “No significant displacement”. Further, in the assay on Sprague-Dawley rats, the “duration of the reduction in renal sympathetic activity, arterial pressure and heart rate” value is reported as “more than one hour”. Further, in the assay on Sprague-Dawley rats (urethane-anesthetized rats), the “reduction in renal sympathetic activity” value stood at 50%. Besides, the “diastolic arterial pressure (DAP)” value in the assay on Sprague-Dawley rats (vs. 83.2±4 baseline) is on record as 58.6±3.4 mmHg. In the assay with Sprague-Dawley rats (vs. 108.±3.4 baseline), the “mean arterial pressure (MAP)” value is listed as 77.4±3.6 mmHg. In the assay with Sprague-Dawley rats (vs. 141.7±2.3 baseline), the “systolic arterial pressure (SAP)” value amounted to 105.3±3 mmHg. The heart rate in the assay with Sprague-Dawley rats (vs. 331.4±14 baseline) was found to be 288.4±10.3 bpm.
